In patent US6372790B1, “Pharmaceutical composition comprising a combination of metformin and fibrate, and its use for the preparation of medicines intended to reduce hyperglycaemia” (Merck Patent Gesellschaft mit beschrankter Haftung, priority 1998, dated 2002):

System: NIDD STZ rats
Test: Streptozotocin-induced non-insulin-dependent diabetes (NIDD) rat model: glycaemia, cholesterol, triglycerides
Assay type: in vivo, male Wistar rats
Conditions: for Cholesterol / Glycaemia / Triglycerides: STZ (45 mg/kg) diabetic male Wistar rats, oral treatment at the doses in Table 1, measured 23 days after STZ, mean ± SEM, 10 rats per group
Description: Non-insulin-dependent diabetes (NIDD) is induced by injecting streptozotocin into male wistar rats. […] The procedure followed is as follows. […] Two weeks after this treatment, blood is taken and the glycaemia is measured. […] The animals then receive, orally, either metformin alone, or a fibrate alone, or a combination of the two in the doses indicated in Table 1 below. 23 days after the injection of streptozotocin, the animals are sacrificed and the following parameters are determined: glycaemia, cholesterol and triglycerides. […] The Student t test is carried out to evaluate the significance of the results obtained.

Compound | Cholesterol [g/L] | Glycaemia [g/L] | Triglycerides [g/L] | Glycaemia (listed as bezafibrate) [g/L] | Glycaemia (listed as metformin) [g/L] | Effects on the levels of cholesterol and of triglycerides when administered alone (metformin alone, in animals, such as in man)
CC(C)(Oc1ccc(CCNC(=O)c2ccc(Cl)cc2)cc1)C(=O)O [Bezafibrate, bezafibrate] | 0.52 ± 0.05 | 2.20 ± 0.21 | 0.81 ± 0.11 | 2.20 |  | 
CCOC(=O)C(C)(C)Oc1ccc(Cl)cc1 [Clofibrate, clofibrate] | 0.63 ± 0.03 | 2.58 ± 0.11 | 0.93 ± 0.11 |  |  | 
CC(C)OC(=O)C(C)(C)Oc1ccc(C(=O)c2ccc(Cl)cc2)cc1 [Fenofibrate, fenofibrate] | 0.45 ± 0.02 |  | 0.61 ± 0.10 |  |  | 
CN(C)C(=N)N=C(N)N [Metformin, metformin] | 0.61 ± 0.03 | 1.74 ± 0.14 | 0.85 ± 0.10 |  | 1.74 | effects on decreasing the levels of cholesterol and of triglycerides
